Patent US8030547B2, “Gene coding for acetolactate synthase” (priority 2002, dated 2011)

Tests used:
Type in all cases: biochemical, rice (Oryza sativa var. Kinmaze)
[1] = molecular target: T1, GST fusion W548L mutant ALS protein (Oryza sativa subsp. japonica, UniProt Q6K2E8, W548L); assay: Herbicide sensitivity of ALS protein expressed in E. coli (crude enzyme solution), W548L; details: for RS ratio: W548L mutant vs wild type
T1 construct: an expression vector having the full-length wild type ALS cDNA incorporated into the Eco RI site of pGEX-2T; made in house; host or cells: E. coli JM109, pGEX 2T(ALS-W548L mutant); crude supernatant
Experimental: (§1) ALS activity resulting from the mutant ALS protein contained in the eluted fractions apportioned into each test tube for apportioning was measured as follows. A reaction solution to be used in a measurement reaction was prepared by mixing an eluted fraction to be measured with a solution comprising 20 mM sodium pyruvate, 0.5 mM TPP, 0.5 mM MgCl2, 10 μM FAD and 20 mM potassium phosphate buffer (pH 7.5). One ml of this reaction solution was used. After the eluted fraction to be measured was added, the measurement reaction was performed at 30° C. for 40 to 60 minutes. Then, the reaction was stopped by addition of 0.1 ml of 6N sulfuric acid (or 0.25 N sodium hydroxide).
(§2) After the reaction was stopped, the reaction solution was incubated at 60° C. for 10 minutes, thereby converting acetolactate contained in the reaction solution to acetoin.
(§3) Then, to quantify acetoin contained in the reaction solution, 1 ml of 0.5% (w/v) creatine and 1 ml of 5% (w/v) α-naphthol dissolved in 2.5 N sodium hydroxide was added to the reaction solution, followed by incubation at 37° C. for 10 minutes. Acetoin was then quantified by color comparison of the absorbance (at 525 nm) of the reaction solution, thereby evaluating ALS activity. In addition, since the reaction solution contained a small amount of sodium pyruvate, reaction time 0 was used as control.
(§4) E. coli transformed with pGEX-2T(ALS-wild) constructed in Example 3(5), E. coli transformed with pGEX-2T(ALS-W548L mutant) constructed in Example 5, E. coli transformed with pGEX-2T(ALS-S627I mutant) constructed in Example 5, E. coli transformed with pGEX-2T(ALS P171H mutant) constructed in Example 6, E. coli transformed with pGEX-2T(ALS R172S mutant) constructed in Example 6, E. coli transformed with pGEX-2T(ALS P171H, R172S mutant) constructed in Example 7, E. coli transformed with pGEX-2T(ALS-P171H, W548L mutant) constructed in Example 8, E. coli transformed with pGEX-2T(ALS-P171H, S627I mutant) constructed in Example 8, and E. coli transformed with pGEX-2T(ALS-P171H, W548L, S627I mutant) constructed in Example 9 were respectively shake-cultured (pre-culture) at 27° C. in 2 ml of LB liquid medium containing ampicillin. These types of E. coli were respectively cultured in 250 ml of LB liquid medium containing ampicillin using 1 ml of the pre-culture solution. After culturing overnight, 1 mM IPTG was added to the media, and then culturing was performed for a further 3 to 4 hours, so that the expression of GST fusion protein was induced. In addition, the cells were stored at −80° C. after washing.
(§5) Preparation and purification of ALS from E. coli were performed by the following method. First, the pellet of the transformant E. coli stored at −80° C. was suspended in ALS extraction buffer (potassium phosphate buffer (pH 7.5) containing 30% glycerol and 0.5 mM MgCl2). Specifically, 2.5 ml of the buffer was added to the pellet obtained from 50 ml of the culture solution. The suspension was subjected to ultrasonication (Heat Systems-Ultrasonics, Sonicator W-225R, micro chip, output control 8, interval of approximately 1 second, twice (40 seconds each)), and subjected to centrifugation at 15000×g, 4° C. for 20 minutes, thereby obtaining the supernatant as a crude enzyme solution.
(§6) Herbicide sensitivity of the wild type ALS protein and that of mutant ALS protein were examined using the 9 types of crude enzyme solutions obtained in Example 10. Herbicide sensitivity test was performed according to procedures almost the same as those in Example 2. However, in this example, reaction temperature was 37° C., reaction time was 30 minutes, and 10 mM valine was added to the reaction solution to inhibit ALS activity derived from E. coli. Further, three types of herbicides, bispyribac-sodium, pyrithiobac-sodium, and pyriminobac, were used as PC herbicides; chlorsulfuron was used as a sulfonylurea herbicide; and imazaquin was used as an imidazolinon herbicide. […]

[2] = molecular target: T2, GST fusion P171H mutant ALS protein (Oryza sativa subsp. japonica, UniProt Q6K2E8, P171H); assay: Herbicide sensitivity of ALS protein expressed in E. coli (crude enzyme solution), P171H; details: for RS ratio: P171H mutant vs wild type
T2 construct: an expression vector having the full-length wild type ALS cDNA incorporated into the Eco RI site of pGEX-2T; made in house; host or cells: E. coli JM109, pGEX-2T(ALS P171H mutant); crude supernatant
Experimental: as §1, §2, §3, §4, §5, §6

[3] = molecular target: T3, GST fusion S627I mutant ALS protein (Oryza sativa subsp. japonica, UniProt Q6K2E8, S627I); assay: Herbicide sensitivity of ALS protein expressed in E. coli (crude enzyme solution), S627I; details: for RS ratio: S627I mutant vs wild type
T3 construct: an expression vector having the full-length wild type ALS cDNA incorporated into the Eco RI site of pGEX-2T; made in house; host or cells: E. coli JM109, pGEX 2T(ALS-S627I mutant); crude supernatant
Experimental: as §1, §2, §3, §4, §5, §6

T2 sequence (Q6K2E8 44-644 P171H): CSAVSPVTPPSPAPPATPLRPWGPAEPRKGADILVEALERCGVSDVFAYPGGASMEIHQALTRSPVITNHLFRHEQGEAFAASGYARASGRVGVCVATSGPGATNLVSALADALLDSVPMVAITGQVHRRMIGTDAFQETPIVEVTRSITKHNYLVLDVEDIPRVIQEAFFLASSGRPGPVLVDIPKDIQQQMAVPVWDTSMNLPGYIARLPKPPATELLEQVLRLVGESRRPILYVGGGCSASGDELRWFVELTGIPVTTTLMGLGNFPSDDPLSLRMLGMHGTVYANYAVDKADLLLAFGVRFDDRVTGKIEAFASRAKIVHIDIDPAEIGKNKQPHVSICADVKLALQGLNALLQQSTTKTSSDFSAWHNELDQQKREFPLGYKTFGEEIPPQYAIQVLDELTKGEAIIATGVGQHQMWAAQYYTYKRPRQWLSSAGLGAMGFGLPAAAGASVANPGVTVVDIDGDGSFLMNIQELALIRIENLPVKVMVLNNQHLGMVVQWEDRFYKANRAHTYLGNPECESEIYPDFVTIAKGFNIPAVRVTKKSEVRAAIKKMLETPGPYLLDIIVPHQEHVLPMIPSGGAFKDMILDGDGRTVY
T3 sequence (Q6K2E8 44-644 S627I): as the sequence (Q6K2E8 44-644 P171H) above, with H128P, S584I counted along it
T1 sequence (Q6K2E8 44-644 W548L): as the sequence (Q6K2E8 44-644 P171H) above, with H128P, W505L counted along it

Question: For `COc1cc(OC)nc(Oc2cccc(Oc3nc(OC)cc(OC)n3)c2C(=O)O)n1` [bispyribac-sodium], which IC50 [1] is on record?
Answer: 3300 nM

Question: And the RS ratio [1]?
Answer: 520

Question: And the IC50 [2]?
Answer: 55 nM

Question: And the RS ratio [2]?
Answer: 8.7

Question: What about the IC50 [3] of the same compound?
Answer: 260 nM

Question: What about the RS ratio [3] of the same compound?
Answer: 41

Question: Which IC50 [1] does the source give for `COc1nc(C)nc(NC(=O)NS(=O)(=O)c2ccccc2Cl)n1` [chlorsulfuron] here?
Answer: 9900 nM

Question: And the RS ratio [1]?
Answer: 760

Question: What about the IC50 [2] of the same compound?
Answer: 1100 nM

Question: And the RS ratio [2]?
Answer: 85

Question: And the IC50 [3]?
Answer: 31 nM

Question: What about the RS ratio [3] of the same compound?
Answer: 2.4

Question: How did the RS ratio [1] turn out when `CC(C)C1(C)N=C(c2nc3ccccc3cc2C(=O)O)NC1=O` (centres unmarked) [imazaquin] was run?
Answer: >45

Question: What about the inhibition at 100 µM ([1]; read-out: inhibition % at the highest concentration among the concentrations tested, W548L mutant, in 100 μM) of the same compound?
Answer: 14%

Question: What about the IC50 [2] of the same compound?
Answer: 3400 nM

Question: What about the RS ratio [2] of the same compound?
Answer: 1.5

Question: What about the IC50 [3] of the same compound?
Answer: 15000 nM
